Source: patent publication US10093883B2, “Glucose gemini surfactant compound and method for preparation thereof” (ZHEJIANG UNIVERSITY, priority 2014, dated 2018)

Assay: Surface activity test: critical micelle concentration (cmc), platinum plate method
Type: physicochemical
Settings: 20° C.
Protocol: The critical micelle concentration (cmc) of the target product was determined as 0.0068 mmol/L at 20° C., which was 3 times […] than that of the compound dodecyl glucose gemini surfactant (cmc=0.02 mmol/L) and is suitable for separation and extraction of detergents and biofilm proteins.

critical micelle concentration (cmc) | Structure (SMILES)
0.02 mmol/L | CCCCCCCCCCCCOCC(COCCOCC(COCCCCCCCCCCCC)O[C@@H]1OC(CO)[C@@H](O)C(O)C1O)O[C@@H]1OC(CO)[C@@H](O)C(O)C1O (some centres unmarked) [dodecyl glucose gemini surfactant]
0.053 mmol/L | CCCCCCCCCCCCCCOCC(COCCOCC(COCCCCCCCCCCCCCC)O[C@@H]1OC(CO)[C@@H](O)C(O)C1O)O[C@@H]1OC(CO)[C@@H](O)C(O)C1O (some centres unmarked) [tetradecyl glucose gemini surfactant]
